# Test results reported in patent publication EP2845588A1, “PIN1 inhibitors for use in the prevention and/or treatment of theileriosis, and related applications” (Centre National de la Recherche Scientifique (CNRS), priority 2013, dated 2015).
# Assays:
# [1] = test system: transcripts encoding glycolytic enzymes; experiment: Expression of transcripts encoding glycolytic enzymes in Theileria-infected cells; assay type: cell-based, bovine
# Description: (§1) Total cellular RNAs were extracted using an RNeasy Plus Mini Kit (Qiagen, Hilden, Germany) and parasite RNAs were extracted using the classical Trizol Protocol. cDNA synthesis was performed with the Reverse Transcriptase Superscript III (Invitrogen, CA, USA).
# (§2) Quantitative PCR amplification was performed in the ABI 7500 machine (Applied Biosystems, CA, USA) using the Sybr Green reagent (Applied Biosystems, CA, USA) using the primers listed in Table 5 below. The detection of a single product was verified by dissociation curve analysis. Relative quantities of mRNA were analyzed using the delta Ct method. The βactin qPCR was used for normalization. Table 5: qPCR primers
# [2] = test system: Parasite-infected TBL3 cells; experiment: Soft agar colony forming assay, TBL3; assay type: cell-based, bovine; details: colonies counted 10 days after plating
# Description: (§3) All infected bovine cell lines used in this study were previously described: TBL3 cells were derived from in vitro infection of the spontaneous bovine-B lymphosarcoma cell line, BL3, with Hissar stock of T.annulata. The TpMD409 lymphocyte cell line are infected with T. parva. The culture conditions of these cell lines were previously described by Moreau et al., 1999. Cells were cultured in RPMI 1640 (Gibco-BRL, Paisley, UK), supplemented with 10% heat-inactivated Fetal calf serum, 4mM L-Glutamine, 25mM HEPES, 10µM β-mercaptoethanol and 100µg/ml penicillin/streptomycin in a humidified 5%CO2 atmosphere at 37°C. […] Cell numbers, as judged by Trypan Blue exclusion test, were determined by counting cells using a Countess automated cell counter (Invitrogen, CA, USA). […]
# (§4) A two-layer soft agar culture system was used. […] Cultures were incubated in humidified 37°C incubators with an atmosphere of 5%CO2 in air, and control plates were monitored for growth using a microscope. At the time of maximum colony formation (10 days in culture), final colony numbers were counted manually after fixation a staining with 0.005% Crystal Violet (Sigma, Ref.: C3886).
# [3] = test system: Theileria parasites in TBL3-infected cells; experiment: Parasites quantification by DAPI staining in infected cells; assay type: cell-based, T.annulata; details: 72h, Buparvaquone 200ng/ml, Juglone 5 µM, PiB 1 µM
# Description: All infected bovine cell lines used in this study were previously described: TBL3 cells were derived from in vitro infection of the spontaneous bovine-B lymphosarcoma cell line, BL3, with Hissar stock of T.annulata. The TpMD409 lymphocyte cell line are infected with T. parva. The culture conditions of these cell lines were previously described by Moreau et al., 1999. Cells were cultured in RPMI 1640 (Gibco-BRL, Paisley, UK), supplemented with 10% heat-inactivated Fetal calf serum, 4mM L-Glutamine, 25mM HEPES, 10µM β-mercaptoethanol and 100µg/ml penicillin/streptomycin in a humidified 5%CO2 atmosphere at 37°C. HepG2, NIH/3T3 and MEF cells lines were cultured in DMEM (Gibco-BRL, Paisley, UK), supplemented with 10% heat-inactivated Fetal calf serum, 4mM L-Glutamine, 25 mM HEPES, 10µM β-mercaptoethanol and 100µg/ml penicillin/streptomycin in a humidified 5% CO2 atmosphere at 37°C. Cell numbers, as judged by Trypan Blue exclusion test, were determined by counting cells using a Countess automated cell counter (Invitrogen, CA, USA). The anti-parasite drug Buparvaquone (BW720c) was used at 200ng/ml for 72 hours. BW720c has no effect on growth of uninfected cells. […] Images of immunofluoresence staining were photographed with a fluorescent microscope (Leica Inverted 6000) and the number of parasites per cells was counted. […]
# HepG2 cells = experiment: Soft agar colony forming assay, HepG2; assay type: cell-based, human; details: number of colonies per plate
# Description: as §3, §4
# [4] = test system: c-Jun and FBW7 ubiquitination in TBL3 cells; experiment: Ubiquitination of endogenous c-Jun and FBW7 in TBL3 cells; assay type: cell-based, bovine
# TaPIN transcripts = experiment: Quantitative PCR of TaPIN transcripts in T.annulata-infected cells; assay type: cell-based
# Description: as §1, §2
# [5] = test system: parasite load in infected TBL3 cells; experiment: Western blot analysis of parasite actin (TaActin) in infected TBL3 cells; assay type: cell-based, T.annulata; details: 72h treatment
# TaPIN WT = biological target: T1, TaPIN WT (Theileria annulata, UniProt Q4UG71); experiment: CyclinD1-Luciferase reporter assay, TaPIN WT in TBL3 cells; assay type: cell-based, T. annulata; details: parasite-infected cells (TBL3)
# T1 construct: expressed in transfected cells; host or cells: TBL3 (T. annulata-infected bovine B cells), electroporated with the pREV-HA-FLAG-RIL2 TaPIN plasmid
# Description: Bovine cells were transfected with the 5xHRE (Staller et al., 2003) or CyclinD1- (Wulf et al., 2001) Luciferase reporters, using electroporation (Neon kit, Invitrogen, CA, USA). Mouse cells were transfected using Lipofectamine 2000 (Invitrogen, CA, USA). Transfections efficiencies were normalized to Renilla activity by co-transfection of a pRL-TK Renilla reporter plasmid (Promega, Ref.: E6241). Luciferase assays were performed 36h post-transfection using the Dual-Luciferase Reporter Assay System (Promega, Ref: E1980) in a microplate luminometer. Relative luminescence was represented as the ratio Firefly/Renilla luminescence, compared with the corresponding empty vector control. The 5xHRE promoter-Luciferase construct was obtained from P Staller (Biotech Research & Innovation Centre, Copenhagen, […]).
# T1 sequence (Q4UG71 33-142): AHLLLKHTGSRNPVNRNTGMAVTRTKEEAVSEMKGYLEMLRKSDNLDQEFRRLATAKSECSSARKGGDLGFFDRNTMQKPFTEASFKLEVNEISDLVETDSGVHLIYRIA
Compound,expression of the transcripts encoding glycolytic enzymes [1],"transformed phenotype, colonies in soft agar [2]",parasites in TBL3 cells [3],soft agar colony-forming potential of HepG2 cells (HepG2 cells),drug-induced decrease in glycolytic enzyme expression on overexpression of the TaPIN A53P mutant ([1]; overexpression of TaPIN A53P),ubiquitination of endogenous c-Jun protein ([4]; TBL3 cells),rescue of the drug effect on c-Jun ubiquitination by overexpressing the TaPIN A53P mutant ([4]; TBL3 cells overexpressing TaPIN A53P),TaPIN transcripts (TaPIN transcripts),"parasite load, parasite actin (TaActin) [5]",CyclinD1 promoter activation by TaPIN WT (TaPIN WT)
"CCOC(=O)CN1C(=O)c2ccc3c4c(ccc(c24)C1=O)C(=O)N(CC(=O)OCC)C3=O [PiB, benzo[Imn][3,8]phenanthroline-2,7-diacetic acid, 1,3,6,8-tetrahydro-1,3,6,8-tetraoxo-, diethyl ester]",reduced expression,reduced,eliminate parasites,–,–,–,–,–,–,–
"CC(C)(C)C1CCC(CC2=C(O)C(=O)c3ccccc3C2=O)CC1 (stereo not shown) [Buparvaquone, 2-((4-tert-butylcyclohexyl)methyl)-3-hydroxy-1,4-naphthoquinone]",reduced expression,reversed the transformed phenotype,eliminate parasites,decreased,reversed,elevated,rescued,lost,decreased parasite load,reversed
